In one assay the test system is H838. Put plainly: CCK-8 cell viability assay. Type of assay: cell-based, human. Conditions: 48 h treatment, mean ± S.E.M., wild-type Ras. Here is the method: (§1) Human hepatoma (HepG2, Hep3B), human lung adenocarcinoma (A549, H838), and human myelogenous leukemia (K562) cell lines were obtained from American Type Culture Collection (Rockville, Md., USA). Human prostate cancer cell lines (LNCaP and DU145), human breast carcinoma (MCF-7), human bladder carcinoma (TSGH 8301) and human pancreas adenocarcinoma (BxPC-3) were obtained from BCRC (Bioresource Collection and Research Center, Hsinchu, Taiwan). HepG2, DU145 and MCF-7 cell lines were cultured in Minimum Essential Medium Alpha (Invitrogen/Gibco BRL, Grand Island, N.Y., USA). A549 cells were cultured in Dulbecco's modified Eagle's medium (Invitrogen/Gibco BRL). H838, TSGH 8301, BxPC-3 LNCaP and K562 cell lines were cultured in RPMI-1640 medium (Invitrogen/Gibco BRL). All cells were cultured at 37° C. in 5% CO2 in culture media supplemented with 10% fetal bovine serum (FBS) (Invitrogen/Gibco BRL) and 100 U/ml streptomycin and penicillin (Invitrogen/Gibco BRL). For treatment, cells were seeded in six-well plates at 6.25×10^5 cells/well. On the following day, the media was changed to serum-free media, and cells were serum-starved for 24 h. Compound 1 was dissolved in DMSO and diluted to the required concentration in serum-free medium. Cultures were then treated with diluted Compound 1 as indicated. After treatment, cells were washed with cold phosphate-buffered saline (PBS) and lysed using RIPA buffer containing phosphatase and protease inhibitors.
(§2) Cell Counting Kit-8 (CCK-8) allows sensitive colorimetric assays for the determination of cell viability in cell proliferation and cytotoxicity assays. The detection sensitivity of CCK-8 is higher than the other tetrazolium salts such as MTT, XTT, MTS or WST-1.
(§3) Cell viability was measured using Cell Counting Kit-8 (CCK-8, Enzo Life Sciences, Farmingdale, N.Y.). In this assay, WST-8 is reduced by dehydrogenases in cells to produce a yellow-colored product (formazan), which is soluble in culture medium. The amount of formazan generated is directly proportional to the number of living cells. After treatment, CCK-8 solution was added to each well and incubated for 4 h. The concentration of formazan was measured with a spectrophotometer at an absorbance wavelength of 450 nm. Cell viability was expressed as a percentage of the corresponding control.
(§4) To determine whether the cytotoxic effects of Compound 1 correlate with the presence of Ras mutations, cell lines derived from human lung cancer (A549 and H838), liver cancer (HepG2 and Hep3B), and leukemia (K562 and THP-1) with wild-type Ras (H838, Hep3B, and K562) or mutant Ras (A549, HepG2, and THP-1) were used. Cell viability was measured after 48 h of Compound 1 treatment.
On the technique in general: Formazan colour is commonly taken as a measure of viable cells.

A further assay relates to A549. Put plainly: CCK-8 cell viability assay. Type of assay: cell-based. Conditions: Homo sapiens, 48 h treatment, mean ± S.E.M., mutant Ras. Here is the method: as §1, §2, §3, §4
The subject of the next assay is Hep3B. Put plainly: CCK-8 cell viability assay. Conditions: Homo sapiens, 48 h treatment, mean ± S.E.M., wild-type Ras. Type of assay: cell-based. Here is the method:
as §1, §2, §3, §4

A further assay deals with HepG2. Put plainly: CCK-8 cell viability assay. It counts as cell-based. Conditions: Homo sapiens, 48 h treatment, mean ± S.E.M., mutant Ras. How it is done:
as §1, §2, §3, §4

The test system of a further assay is Ras processing. Description: Immunoblot of unprocessed and processed Ras in cancer cell lines. As to conditions: H838 cells, competition assay, 24 h. Type of assay: cell-based, human. How it is done: FIG. 2A-C show illustrative effective results of the exemplary Compound 1 inhibiting Ras processing in cancer cell lines. (2A) A549 and H838 cells were treated with different concentrations of Compound 1 and grown under serum (10% FBS) or serum-free (no FBS) conditions for 24 h. (2B) H838, (2C) HepG2 and K562 cells were treated with different concentrations of Compound 1 and grown under serum-free (no FBS) conditions for 24 h. Whole cell lysates were then immunoblotted with a Ras antibody. A duplicate membrane was probed with a GAPDH antibody. The relative expression level of unprocessed to processed Ras was quantified by densitometry. The experiments were conducted three times. […]
FIG. 3A-C show illustrative effective results of Compound 1 inhibiting the prenylation activity of farnesyltransferase in vitro and competes with FPP within cells. […] The relative expression level of unprocessed to processed Ras was quantified by densitometry. […]
Sixty micrograms of total protein lysates measured using a Bradford assay (Sigma-Aldrich, St. Louis, Mo., USA) were resolved on 12.5% SDS-polyacrylamide gels. […] Secondary antibodies were conjugated to horseradish peroxidase, which was detected using a 3,3′-diaminobenzidine substrate kit (Vector Laboratories, Burlingame, Calif.). The immunoreactive bands were quantified by densitometry using Image-Pro Plus software (Media Cybernetics, Silver Spring, Md.). […]

In the next assay the test system is K562. Put plainly: CCK-8 cell viability assay. Type of assay: cell-based. As to conditions: Homo sapiens, 48 h treatment, mean ± S.E.M., wild-type Ras. Here is the method:
as §1, §2, §3, §4

The next assay concerns THP-1. Put plainly: CCK-8 cell viability assay. Type of assay: cell-based. As to conditions: Homo sapiens, 48 h treatment, mean ± S.E.M., mutant Ras. How it is done:
as §2, §3, §4

With `COC1=CC(O)C(C/C=C(\C)CC/C=C(\C)CCC=C(C)C)C(C)C1=O` (centres unmarked) [Compound 26, 4-hydroxy-2-methoxy-6-methyl-5-((2E,6E)-3,7,11-trimethyldodeca-2,6,10-trienyl)cyclohex-2-enone], the IC50 (commonly the concentration at which inhibition is half-maximal) in the assay on H838 (Homo sapiens, NCI-H838, 48 h) came out at 11.3 ± 4.17 µM.

As to `COC1=C(OCc2ccccc2)C(=O)C(C)C(C/C=C(\C)CC/C=C(\C)CCC=C(C)C)C1O` (centres unmarked) [Compound 30], the IC50 amounted to 22.6 ± 2.24 µM in the assay with A549; 9.06 ± 3.03 µM with Hep3B; 27 ± 6.06 µM with HepG2; 25.6 ± 6.54 µM with H838 (Homo sapiens, NCI-H838, 48 h).

In the case of `COC1=C(OCc2ccccc2)C(O)C(C/C=C(\C)CC/C=C(\C)CCC=C(C)C)C(C)C1=O` (centres unmarked) [Compound 31], the IC50 in the assay on A549 was found to be 6.68 ± 0.75 µM; in the assay with Hep3B it was 7.46 ± 7.06 µM; in the assay on HepG2, 8.98 ± 0.97 µM; with H838 (Homo sapiens, NCI-H838, 48 h), 3.41 ± 1.43 µM.

As to `COC1=C(OC)C(OC(C)=O)C(C/C=C(\C)CC/C=C(\C)CCC=C(C)C)C(C)C1=O` (centres unmarked) [Compound 29], the IC50 in the assay with H838 (Homo sapiens, NCI-H838, 48 h) is above 100 µM.

On to `CC(C)=CCC/C(C)=C/CC/C(C)=C/COP(=O)(O)OP(=O)(O)O` [FPP, farnesyl pyrophosphate], for which the “concentration of FPP that neutralized the effect of Compound 1 on Ras processing” value with Ras processing is at least 10 µM.

`COC1=C(OC)C(O)C(C/C=C(\C)CCC(=O)O)C(C)C1=O` (centres unmarked) [Compound 27]: in the assay with H838 (Homo sapiens, NCI-H838, 48 h), the IC50 is above 100 µM.

Take `COC1=C(OC)C(O)C(C/C=C(\C)CC/C=C(\C)CCC=C(C)C)C(C)C1=O` (centres unmarked) [Compound 1, 4-hydroxy-2,3-dimethoxy-6-methyl-5-(3,7,11-trimethyldodeca-2,6,10-trienyl)cyclohex-2-enone]: the IC50 in the assay with A549 turned out to be 3.24 µM; with Hep3B it was 3.74 µM; in the assay with HepG2, 6.42 µM; with K562, 5.12 µM; in the assay with H838 it was 2.96 ± 0.05 µM; in the assay on H838 (Homo sapiens, NCI-H838, 48 h), 3.32 µM. In the assay on THP-1, this compound yielded a half-inhibitory concentration (IC50) of 2.22 µM.

Compound `COC1=C(OC)C(OC(C)=O)C(C/C=C(\C)CC/C=C(\C)CC2CC(C)C(=O)O2)C(C)C1=O` (centres unmarked) [Compound 28] had an IC50 in the assay on H838 (Homo sapiens, NCI-H838, 48 h) above 100 µM.

The values are drawn from patent publication US20150018296A1, “THERAPEUTIC METHODS AND COMPOSITIONS UTILIZING CYCLOHEXENONE COMPOUNDS” (Golden Biotechnology Corporation, priority 2013, published 2015).
